Experimental data from publication PMC3844181, “Studies of the Interaction between Isoimperatorin and Human Serum Albumin by Multispectroscopic Method: Identification of Possible Binding Site of the Compound Using Esterase Activity of the Protein” (The Scientific World Journal, 2013).
Each block holds one compound with its values, some of them ahead of it.

Experiments:
[1] = target: T1, Human serum albumin (HSA) (Homo sapiens, UniProt P02768); assay: ANS fluorescence titration, Scatchard plot; type: binding
T1 construct: gene ALB; mature serum albumin, 585 residues, monomer
T1 sequence (P02768 25-609): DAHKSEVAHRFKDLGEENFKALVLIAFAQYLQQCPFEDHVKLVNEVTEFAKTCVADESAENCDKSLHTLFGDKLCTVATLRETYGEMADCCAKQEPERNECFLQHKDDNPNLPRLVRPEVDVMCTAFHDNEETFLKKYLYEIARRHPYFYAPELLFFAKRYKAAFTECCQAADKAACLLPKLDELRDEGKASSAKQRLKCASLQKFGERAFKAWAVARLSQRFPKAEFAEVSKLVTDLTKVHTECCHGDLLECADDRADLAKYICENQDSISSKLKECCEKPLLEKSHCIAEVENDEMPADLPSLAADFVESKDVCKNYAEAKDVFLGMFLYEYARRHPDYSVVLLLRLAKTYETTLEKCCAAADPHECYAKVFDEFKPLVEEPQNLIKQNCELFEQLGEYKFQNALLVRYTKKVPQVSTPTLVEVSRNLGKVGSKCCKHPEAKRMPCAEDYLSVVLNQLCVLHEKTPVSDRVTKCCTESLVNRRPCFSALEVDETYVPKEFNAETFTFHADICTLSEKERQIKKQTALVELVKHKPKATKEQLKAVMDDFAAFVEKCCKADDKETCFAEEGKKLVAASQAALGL
Excerpt: ANS fluorescence titration, Scatchard plot on Human serum albumin (HSA)

[2] = target: T1, Human serum albumin (HSA); assay: 4-nitrophenyl acetate esterase assay; type: biochemical; conditions: 15 μM HSA, 250 μM pNPA, 250 μM compound, site I
[3] = target: T1, Human serum albumin (HSA); assay: intrinsic Trp fluorescence quenching, modified Stern-Volmer plot; type: binding; conditions: 298 K, 50 mM phosphate pH 7.5, 3 μM HSA, excitation 295 nm; n = 0.862; site I; double-log
Excerpt: intrinsic Trp fluorescence quenching, modified Stern-Volmer plot on Human serum albumin (HSA)

Kd [1]: 0.9 ± 0.05 µM
SMILES: O=S(=O)(O)c1cccc2cccc(Nc3ccccc3)c12 [ANS]

10^-5 × K b (M^-1) [3]: (11.02 ± 0.10) × 10^5 M^-1
SMILES: CC(C)=CCOc1c2ccoc2cc2oc(=O)ccc12 [isoimperatorin, 4-[(3-methyl-2-butenyl)oxy]-7H-furo [3,2-g] [1] benzopyran-7-one]
inhibition of esterase activity ([2]; competitive): warfarin and indomethacin (as site I marker) and isoimperatorin inhibited competitively the HSA-catalyzed hydrolysis

SMILES: COc1ccc2ccc(=O)oc2c1CC=C(C)C [osthole]
inhibition of esterase activity [2]: isoimperatorin, aspirin, warfarin, indomethacin, and osthole binding sites on the HSA molecule are the same

SMILES: CC(=O)Oc1ccccc1C(=O)O [aspirin]
inhibition of esterase activity [2]: isoimperatorin, aspirin, warfarin, indomethacin, and osthole binding sites on the HSA molecule are the same
